Reference: PubChem BioAssay AID651738 (Southern Research Specialized Biocontainment Screening …, 2012)
Active and inactive are the calls of the source. No rule for the calls is given here.

How the values were obtained:
[1] = Chikungunya virus CPE inhibition, VEEV inhibitor project, cell-based, set 2 (AID 651738); conditions: Chikungunya virus infected cells, CPE inhibition; at 50 µM (top of the series)
[2] = tested on: Chikungunya virus infected cells, CPE inhibition; test: as above

Row | SMILES | inhibition [1] | IC50 [2] [µM]
1 | CCN1CCN(Cc2nc3ccc([N+](=O)[O-])cc3c(=O)n2-c2ccccc2F)CC1 | -0.8% (inactive) | –
2 | O=c1c2cc(F)c(F)cc2nc(CN2CCNCC2)n1-c1ccccc1 | -1% (inactive) | –
3 | COc1ccc(Nc2nc(=O)c3cccnc3s2)cc1 | 11.7% (inactive) | –
4 | CCN1CCN(C2c3ncccc3C(=O)N2c2ccccc2)CC1 (stereo not drawn) | -1.8% (inactive) | –
5 | CN(c1ccc(OCc2ccccc2)cc1)c1nc(=O)c2cccnc2s1 | – | 1.72
6 | CN1CCN(C)C(=Nc2ccc([N+](=O)[O-])cc2C(=O)Nc2ccccc2F)C1 | 8.6% (inactive) | –
7 | COc1ccc(NC(=O)c2cc([N+](=O)[O-])ccc2N=C2CN(C)CCN2C)cc1 | 2.2% (inactive) | –
8 | COc1ccc(CNc2nc(=O)c3cccnc3s2)cc1 | 0.1% (inactive) | –
9 | CN1CCN(C)C(=Nc2ccc([N+](=O)[O-])cc2C(=O)Nc2ccccc2)C1 | -3.1% (inactive) | –
10 | O=c1c2cc([N+](=O)[O-])ccc2nc(CN2CCCNC2)n1-c1ccccc1 | -0.2% (inactive) | –
11 | CCN1CCN(Cc2nc3ccc(-c4ccccn4)cc3c(=O)n2-c2ccccc2)CC1 | 4.3% (inactive) | –
12 | CN1CCN(C)C(=Nc2ccc(C#N)cc2C(=O)Nc2ccccc2)C1 | 3% (inactive) | –
13 | O=c1c2cc([N+](=O)[O-])ccc2nc(CN2CCCNCC2)n1-c1ccccc1 | -3.1% (inactive) | –
